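Growth conditions: 96-well plates. Treatment: test compound, 48 hours, 5 concentrations. Analysis: linear interpolation between bracketing concentrations; unreached endpoints set to highest concentration. GI50 marks 50% less growth. Definition used: TGI = concentration required for complete inhibition of growth.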
Tests used:
Experiment in all cases: NCI anticancer screen, dose series, 48 h
CCRF-CEM leukemia = test system: CCRF-CEM leukemia
MALME-3M melanoma = test system: MALME-3M melanoma
MDA-MB-231 breast = test system: MDA-MB-231 breast
HOP-92 NSCLC = test system: HOP-92 NSCLC
SK-OV-3 ovarian = test system: SK-OV-3 ovarian
EKVX NSCLC = test system: EKVX NSCLC
HCT-15 colon = test system: HCT-15 colon
NCI-H460 lung = test system: NCI-H460 lung
SK-MEL-28 melanoma = test system: SK-MEL-28 melanoma
HS 578T breast = test system: HS 578T breast

| SMILES | TGI (CCRF-CEM leukemia) | TGI (MALME-3M melanoma) | TGI (MDA-MB-231 breast) | TGI (HOP-92 NSCLC) | TGI (SK-OV-3 ovarian) | TGI (EKVX NSCLC) | TGI (HCT-15 colon) | TGI (NCI-H460 lung) | TGI (SK-MEL-28 melanoma) | TGI (HS 578T breast) | GI50 (CCRF-CEM leukemia) | GI50 (MALME-3M melanoma) | GI50 (MDA-MB-231 breast) | GI50 (HOP-92 NSCLC) | GI50 (SK-OV-3 ovarian) | GI50 (EKVX NSCLC) | GI50 (HCT-15 colon) | GI50 (NCI-H460 lung) | GI50 (SK-MEL-28 melanoma) | GI50 (HS 578T breast) |
| --- | --- | --- | --- | --- | --- | --- | --- | --- | --- | --- | --- | --- | --- | --- | --- | --- | --- | --- | --- | --- |
| CO/C=C(/C(=O)OC)c1ccccc1[C@@H]1CC1c1cccc(F)c1 (stereo not given in full) | 87.7 µM | 45.9 µM | > 100 µM | > 100 µM | 79.7 µM | 88.1 µM | 78.1 µM | > 100 µM | > 100 µM | > 100 µM |  |  |  |  |  |  |  |  |  |  |
| Cc1nc2c(n1C)C(=O)c1nc(CBr)[nH]c(=O)c1C2=O | > 100 µM |  |  | > 100 µM | > 100 µM | 54.9 µM | > 100 µM | > 100 µM | > 100 µM |  |  |  |  |  |  |  |  |  |  |  |
| Cc1cccc2cc3c(ccc4ccccc43)c[n+]12 | > 100 µM | 5.22 µM | > 100 µM |  |  | > 100 µM | > 100 µM | 93.7 µM | 34.3 µM | 24.6 µM |  |  |  |  |  |  |  |  |  |  |
| N#Cc1c(NC(=S)Nc2ccc(Cl)cc2)sc2c1CCCC2 |  | > 100 µM | > 100 µM |  |  | > 100 µM | > 100 µM |  | > 100 µM |  |  |  |  |  |  |  |  |  |  |  |
| COc1ccc2c(c1)CCN=C2Cc1cc(OC)c(OC)cc1CCCl | > 100 µM | 73.8 µM | > 100 µM | > 100 µM | > 100 µM | > 100 µM |  | > 100 µM | > 100 µM | 81.7 µM |  |  |  |  |  |  |  |  |  |  |
| CC(=O)Oc1c(C)c2c(O)c3c1C1=C(OCOC1=C(C)C3=O)/C(C)=C\C(C)(O)C(O)C(C)C(O)C1C(=O)OC(C(C)C1O)C(C)(O)/C=C/C=C(C)C(=O)N2 (stereo not given) | 61.4 µM | > 100 µM | > 100 µM | > 100 µM | > 100 µM | > 100 µM | > 100 µM | > 100 µM | > 100 µM | > 100 µM |  |  |  |  |  |  |  |  |  |  |
| CN(C)c1nc(N(C)C)nc(N(C)CN(C)c2ccc(Cl)cc2)n1 | > 100 µM | > 100 µM |  |  | > 100 µM |  | > 100 µM | > 100 µM | > 100 µM |  |  |  |  |  |  |  |  |  |  |  |
| O=C(C[C@H](NC(=O)OCc1ccccc1)C(=O)NC1Cc2ccccc2OC1=O)OCc1ccccc1 (stereo not given in full) | > 100 µM | > 100 µM | 71.6 µM | > 100 µM | > 100 µM |  | > 100 µM | > 100 µM | > 100 µM | > 100 µM |  |  |  |  |  |  |  |  |  |  |
| CCOC(=O)C[C@@H]1C2(C=C[C@@]13CO3)OCC(C)(C)CO2 | > 100 µM | > 100 µM | > 100 µM | > 100 µM | > 100 µM | > 100 µM | > 100 µM | > 100 µM | > 100 µM | > 100 µM |  |  |  |  |  |  |  |  |  |  |
| CN(c1cc2ncc(=O)[nH]c2cc1NC(N)=NCc1ccc(Cl)cc1)C1CCCCC1 | 15.6 µM | 17.5 µM | 9.04 µM | 5.95 µM | 15.8 µM | 14.5 µM | 15.4 µM | 14.5 µM | 13.7 µM | 16 µM | 6.33 µM | 8.5 µM | 2.46 µM | 0.793 µM | 7.6 µM | 6.65 µM | 8.27 µM | 7.14 µM | 6.71 µM | 6.53 µM |
| CC(C)(C)OC(=O)NCC(=O)NC1c2ccsc2/C(=N/O)[C@H]1O (stereo not given in full) | > 100 µM | > 100 µM | > 100 µM | > 100 µM | > 100 µM | > 100 µM | > 100 µM | > 100 µM | > 100 µM |  |  |  |  |  |  |  |  |  |  |  |
| CCN(CC)CCCC(C)Nc1ccnc2cc3ccccc3cc12 (stereo not given) | > 100 µM | 45.1 µM | > 100 µM | > 100 µM | 50 µM | > 100 µM | 14.4 µM | 24.4 µM |  | > 100 µM |  |  |  |  |  |  |  |  |  |  |
| CCN1C=C/C(=C\C=C/c2cc[n+](CC)c3ccccc23)c2ccccc21 | 30.9 µM | 30.5 µM | 9.32 µM | 37.5 µM | 15.1 µM | 47 µM | 34.1 µM | 11 µM | 21.8 µM | 24.6 µM |  |  |  |  |  |  |  |  |  |  |
| CC(C)CCC[C@@H](C)[C@H]1CC[C@H]2[C@@H]3CC[C@H]4C[C@H](N)CC[C@]4(C)[C@H]3CC[C@]12C | 8.5 µM | 38.7 µM | 8.22 µM | 34.6 µM | 64.5 µM | 43.4 µM | 96.2 µM | > 100 µM | 95 µM | 76.3 µM |  |  |  |  |  |  |  |  |  |  |
| CCCCCCCCCCCCCCCc1ccc(OCC(O)CO)cc1 (stereo not given) | > 100 µM | 46.8 µM |  | 47.8 µM | > 100 µM | 78.5 µM | > 100 µM | 53.6 µM | 62.2 µM |  |  |  |  |  |  |  |  |  |  |  |
| COc1ccc(C2CC(c3cccc(Nc4ccncc4)c3)=NN2c2ccc(Cl)cc2)cc1 (stereo not given) | 7.74 µM | 3.15 µM | 2.65 µM | 2.44 µM | 5.79 µM | 3.27 µM | 3.58 µM | 3.37 µM | 3.2 µM | 3.68 µM | 2.5 µM | 1.59 µM | 1.33 µM | 1.12 µM | 2.19 µM | 1.66 µM | 1.88 µM | 1.81 µM | 1.73 µM | 1.77 µM |
| O=c1cc(-c2ccc(O)cc2)n(C2CC2)c2ccccc12 | 72.2 µM |  | 22.2 µM | 19.8 µM | 42.6 µM |  | 16.8 µM | 17.3 µM |  | 24.8 µM |  |  |  |  |  |  |  |  |  |  |
| c1ccc(C2CC(c3cccc(Nc4ccncc4)c3)=NN2c2ccccc2)cc1 (stereo not given) | 5.68 µM | 3.02 µM | 3 µM | 2.95 µM | 5.49 µM | 3.42 µM | 3.18 µM | 3.25 µM | 3.19 µM | 3.47 µM | 2.09 µM | 1.57 µM | 1.61 µM | 1.45 µM | 2.38 µM | 1.61 µM | 1.59 µM | 1.72 µM | 1.76 µM | 1.55 µM |
| O=Cc1cc([N+](=O)[O-])no1 | > 100 µM |  | 64.3 µM | > 100 µM | > 100 µM |  | > 100 µM | > 100 µM | > 100 µM | > 100 µM |  |  |  |  |  |  |  |  |  |  |
